Patent US20210244712A1, “METHODS FOR TREATING PATIENTS WITH CANCER HAVING DEFECTS IN CYCLIN D REGULATION” (NysnoBio Ireland DAC, priority 2018, published 2021)
“Also recorded” adds a separate entry of the source. Where two headings read alike, the source gives them in different places.

Key:
[1] = system: cyclin D1; assay: Western blot of Cyclin D1, Example 6B; assay type: cell-based; conditions: 24 h, compared to control (DMSO)
Description: Cells were plated at a density of 3×10^5 cells/well for 24 hrs. Representative compounds or DMSO alone was then added to the wells for 24 h at 250 nM (note: Compound F was administered at a concentration of 2 μM). Cells were trypsinised, pelleted, washed ×3 in PBS, and lysed using a 2% SDS lysis solution (Sigma—05030).
Western blot analysis was then carried out to look at Cyclin D1 (Abeam—ab134175), PRK8 (Sigma—P6248), Rb (Abeam—[…]) and GAPDH (Sigma—G9545) levels.

[2] = system: A549; assay: Cell proliferation assay; assay type: cell-based; conditions: Homo sapiens
Description: (§1) Measurement of the inhibitive effect of compounds on cancer cell proliferation was performed. The assays were performed under the following conditions: Cells are harvested at a concentration of 4×10^4 cells/ml in media. Volumes of 100 μL/well of these cell suspensions were added to a 96 well plate using a multichannel pipette. Plates were gently agitated to ensure an even dispersion of cells over a given plate. Cells were then incubated at 37° C., 5% CO2 overnight. Following this, 100 μL of compound at varying concentrations was added to wells in triplicate. Control wells are those with 100 μL media containing 0.33% DMSO added to cell suspension (this is the equivalent volume of DMSO found in the highest concentration of drug). Plates were then gently agitated, as above, and incubated at 37° C., 5% CO2 for 72 hrs (control wells have reached 80-90% confluency). Assessment of cell proliferation in the presence of Compounds C and F was determined by the acid phosphatase assay.
(§2) Following the incubation period of 72 hrs, media was removed from the plates. Each well on the plate was washed twice with 100 μL PBS. This was then removed and 100 μL of freshly prepared phosphatase substrate (10 mM p-nitrophenol phosphate in 0.1M sodium acetate, 0.1% triton X-100, pH 5.5) was added to each well. The plates were then incubated in the dark at 37° C. for 2 hours. Color development was monitored during this time. The enzymatic reaction was stopped by the addition of 50 μL of 1N NaOH. The plate was read in a dual beam plate reader at 405 nm with a reference wavelength of 620 nm. The absorbance reading of the latter is subtracted from the former, and the effect of the drug on cell proliferation was then measured as a percentage against the control cells (DMSO), which is taken as 0% inhibition.

[3] = system: TOV-112D; assay: Cell proliferation assay; assay type: cell-based; conditions: Homo sapiens
Description: as §1, §2

[4] = system: Jeko-1; assay: Cell proliferation assay; assay type: cell-based; conditions: Homo sapiens; for IC50: Mantle Cell Jeko-1, overexpression of Cyclin D
Description: as §1, §2

[5] = system: OAW42; assay: Cell proliferation assay; assay type: cell-based; conditions: Homo sapiens, OAW-42; for IC50: Ovarian OAW42
Description: as §1, §2

[6] = system: HCT 116; assay: Cell proliferation assay; assay type: cell-based; conditions: Homo sapiens
Description: as §1, §2

[7] = system: TOV-21G; assay: Cell proliferation assay; assay type: cell-based; conditions: Homo sapiens
Description: as §1, §2

[8] = system: A2780; assay: Cell proliferation assay; assay type: cell-based; conditions: Homo sapiens; for IC50: Ovarian A2780
Description: as §1, §2

[9] = system: HCT-116 xenograft; assay: Subcutaneous HCT-116 xenograft model, tumor volume; assay type: in vivo, nude mice; conditions: vs control
Description: The efficacy of Compound 42, Compound F, and Compound Q3 were evaluated in the treatment of subcutaneous HCT-116 xenograft model in nude mice.
Cell Culture: HCT-116 tumor cell lines were maintained in vitro as a monolayer culture in DMEM medium supplemented with 10% fetal bovine serum at 37° C. in an atmosphere of 5% CO2 in air. The tumor cells were routinely subcultured twice weekly by trypsin-EDTA treatment (0.05% Trypsin-EDTA) and 1:4 split: The cells in an exponential growth phase were harvested and counted for tumor inoculation.
Tumor Inoculation: Each, mouse was inoculated subcutaneously at the flank region with HCT-1.16 cells (1.0×106) in 0.1 ml of 1×PBS mixed with Matrigel (1:1) for tumor development. The day Xenotransplantation was performed is denoted as day 0.
Thirty (30) animals with approx 100-150 mm^3 tumors were selected for HCT-116 follow up experiment and randomly placed Into Groups 1, 2, […], 4, 5, and 6 as shown in Table 8.
Group Assignment: Before grouping and treatment, all animals were weighed and fee tumor volumes were confirmed (100-150 mm^3) using electronic caliper. Since the tumor volume can affect fee effectiveness of any given treatment mice into groups using randomized block design as following: First the experimental animals were divided into homogeneous blocks based on their tumor volume. Secondly, within each block, randomization of experimental animals to different groups By using randomized block design to assign experimental animals, we ensure that each animal has the same probability of being assigned to any given treatment groups and therefore systematic error is minimized.
Treatments were initiated when turner volume reached 100-150 mm^3. Treatments started on Day 5. Test compounds were administered intraperitoneally (II′) in 10 mg/mL solution comprising 10% N,N-dimethyl acetamide, 15% macrogol 15 hydroxy stearate, polyethylene glycol-15-hydroxystearate, and 75% aqueous hydroxypropyl-beta-cyclodextrin.
Observation and data collection: After tumor cells inoculation, the animals were checked daily for morbidity and mortality. At the time of routine monitoring, the animals were checked for any adverse effects of tumor growth and treatments on normal behavior such as mobility, visual estimation of food and water consumption, body weight gain/loss, eye/hair matting and any other abnormal effects, Death and observed clinical signs were recorded, per […] IACUC. Tumor volumes were measured every 3-4 days in two dimensions using an electronic caliper, sad the volume data are expressed in, mm3 using the formula: V=0.5 a×b^2 where a and b are fee long and short diameters of the tumor, respectively. Dosing and tumor volume measurement procedures were conducted in a Laminar Flow Cabinet according to Altogen Labs IACUC regulations.
Statistics: Summary statistics, the mean and the standard error of the mean (SEM), are provided for the tumor volume of each group at each time point. Statistical analysis of difference in tumor volume among the groups and the analysis of drug interaction were conducted on the data obtained after the final dose.

[10] = Ovarian TOV112D, loss of p16 (mutant p53), read-out: Proliferation IC50
[11] = CRC HCT-116, loss of p16 (mutant p53), read-out: Proliferation IC50
[12] = Ovarian TOV21G, read-out: Proliferation IC50
[13] = Groups 2-6 of Table 8 (Compound 42 1 and 5, Q3 5 and 15, F 25 mg/kg), IP daily for 20 days, 28 days

Cc1ccccc1C(=O)Nc1nc(NC(=O)c2ccccc2C)n(-c2ccc(OC(F)(F)F)cc2)n1 [Compound 42, N,N′-(1-(4-(trifluoromethoxy)phenyl)-1H-1,2,4-triazole-3,5-diyl)bis(2-methylbenzamide)]
Cyclin D1 expression ([1]; HCT-116, 250 nM): reduction of Cyclin D1 expression | Cyclin D1 expression ([1]; TOV-112, 250 nM): reduction of Cyclin D1 expression | EC50 ([2]; Table 7a, Lung (A549)): 0.072 µM | IC50 [3, 10]: 0.103 µM | EC50 ([3]; Table 7a, Ovarian (TOV112D), read-out: EC50): 0.098 µM | IC50 [4]: 0.154 µM | EC50 ([4]; Table 7a, Mantle Cell (Jeko-1)): 0.154 µM | IC50 [5]: 0.166 µM | EC50 ([5]; Table 7a, Ovarian (OAW42)): 0.166 µM | IC50 [6, 11]: 0.087 µM | EC50 ([6]; Table 7a, Colon (HCT-116), read-out: EC50): 0.087 µM | IC50 [7, 12]: 0.109 µM | EC50 ([7]; Table 7a, Ovarian (TOV21G)): 0.074 µM | IC50 [8]: 0.084 µM | EC50 ([8]; Table 7a, Ovarian (A2780)): 0.058 µM | tumor growth (tumor volume) ([9]; 1 mg/kg, IP, over 28 days): reduce tumor growth | tumor growth (tumor volume) ([9]; 5 mg/kg, IP, over 28 days): reduce tumor growth | tumor growth (tumor volume) [9, 13]: reduce the tumor growth

Cc1ccccc1C(=O)Nc1nc(NC(=O)c2ccccc2C)n(-c2ccccc2)n1 [Compound F, 2-methyl-N-[5-[(2-methylbenzoyl)amino]-1-phenyl-1,2,4-triazol-3-yl]benzamide]
Cyclin D1 expression ([1]; HCT-116, 2 μM): reduction of Cyclin D1 expression | Cyclin D1 expression ([1]; TOV-112, 2 μM): reduction of Cyclin D1 expression | IC50 ([2]; A549, 72 hrs, read-out: Cell Viability: IC50): 7.54 µM | IC50 ([3]; TOV112D, TOV-112D, 72 hrs, read-out: Cell Viability: IC50): 0.99 µM | IC50 [3, 10]: 0.85 µM | IC50 [4]: > 2.5 µM | IC50 [5]: > 2.5 µM | IC50 [6, 11]: 1.3 µM | IC50 ([6]; HCT 116, 72 hrs, read-out: Cell Viability: IC50): 2 µM | IC50 ([7]; TOV21G, TOV-21G, 72 hrs, read-out: Cell Viability: IC50): 1.16 µM | IC50 [7, 12]: 1.5 µM | IC50 [8]: 1.3 µM | tumor growth (tumor volume) ([9]; 10 mg/kg, over 28 days): substantially reduce tumor growth | tumor growth (tumor volume) ([9]; 25 mg/kg, IP, over 28 days): most substantially reduced; also recorded: substantially reduce tumor growth | tumor growth (tumor volume) [9, 13]: reduce the tumor growth
